# Data as given in patent US9005965B2, “Stem cells culture systems” (Hadasit Medical Research Services & Development Limited, priority 2004, dated 2015).
# “Also recorded” adds a separate entry of the source.
# B1: activin A: TGFβ superfamily factor, 25-50 ng/ml (protein, UniProt P08476 311-426, looked up)
# Inhibin beta A chain: GLECDGKVNICCKKQFFVSFKDIGWNDWIIAPSGYHANYCEGECPSHIAGTSGSSLSFHSTVINHYRMRGHSPFANLKSCCVPTKLRPMSMLYYDDGQNIIKKDIQNMIVEECGCS
# modifications: Inhibin beta A chain
# notes: TGFβ superfamily factor, 25-50 ng/ml
# B2: noggin: BMPs antagonist, 250 ng/ml (protein, UniProt Q13253 28-232, looked up)
# Noggin: QHYLHIRPAPSDNLPLVDLIEHPDPIFDPKEKDLNETLLRSLLGGHYDPGFMATSPPEDRPGGGGGAAGGAEDLAELDQLLRQRPSGAMPSEIKGLEFSEGLAQGKKQRLSKKLRRKLQMWLWSQTFCPVLYAWNDLGSRFWPRYVKVGSCFSKRSCSVPEGMVCKPSKSVHLTVLRWRCQRRGGQRCGWIPIQYPIISECKCSC
# How the values were obtained:
# Type in all cases: cell-based, human
# hESC-derived EBs [1] = test: EB formation in presence or absence of nicotinamide: morphology, size, cell number; settings: for number of cells versus controls: comparable number of starting cells
# Experimental: (§1) Human ES cells were removed from the feeders by treatment with dispase (10 mg/ml; Gibco), and/or type IV collagenase (1 mg/ml; Gibco). The clusters of undifferentiated cells that were obtained were further triturated into smaller clumps within PBS. These clumps were cultured for various periods in suspension within bacteriological dishes precoated with 0.1% low melting temperature agarose in DMEM (Gibco), supplemented with 10-20% FCS (Biological Industries, Beit Haemek), 1 mM L-glutamine, 0.1 mM β-mercaptoethanol, 1% non-essential amino acid stock, 50 units/ml penicillin, 50 μg/ml streptomycin (all from Gibco Invitrogen Corporation products, USA) in the presence or absence of nicotinamide 10 mM (Sigma). In some experiments DMEM and FCS were replaced by 86% KO-DMEM and 14% KOSR or by Neurobasal medium supplemented by N2 (Gibco).
# hESC-derived EBs [2] = test: Immunocytochemical and RT-PCR analysis of EBs
# Experimental: EBs that were developed 4 weeks in suspension culture in the presence and absence of nicotinamide (NA), were fixed in 4% paraformaldehyde at room temperature overnight. The EBs were then concentrated at the bottom of a centrifuge tube and embedded in agar. The agar blocks were dehydrated, and embedded in paraffin. 5-micron sections were immuno-stained with anti-human cytokeratin-8 and anti-α-fetoprotein (both at 1:50, monoclonal mouse IgG, DAKO). Primary antibody localization was performed using Picture™ plus kit (Zymed). For RT PCR analysis, total RNA was collected from EBs that were developed 4 weeks in suspension culture in the presence and absence of nicotinamide (NA). Total RNA was isolated using TRI REAGENT (Sigma) and converted into complementary cDNA with M-MLV reverse transcriptase (Promega). PCR was carried out using standard protocols with Taq DNA Polymerase (Promega). Amplification conditions were as follows: denaturation at 94° C. for 60 seconds, annealing at 55-60° C. for 60 seconds, and extension at 72° C. for 60 seconds. The number of cycles was 35 Primer sequences and lengths of amplified products were: […]
# hESC-derived EBs [3] = test: Neural precursor marker expression in EBs (FACS, indirect immunofluorescence)
# Experimental: (§2) EBs were dissociated into smaller clusters mechanically with/without the aid of trypsin (0.025%, 3 mM EDTA in PBS) digestion. The small clusters of cells were plated on poly-D-lysine (30-70 kDa, 10 μg/ml; Sigma, St. Louis, Mo.) and laminin-coated (4 μg/ml; Sigma) glass coverslips and cultured for additional 3-5 weeks in the culture medium used for suspension culture of EBs or neural spheres. Differentiated cells within the outgrowth were fixed with 4% paraformaldehyde for 20 minutes at room temperature. Cell membranes were permeabilized with 0.2% Triton X100 (Sigma) in PBS for 5 minutes for immunostaining with ant-intracellular markers antibodies. The cells were incubated with the following primary antibodies: anti β-tubulin III (mouse monoclonal IgG2b, 1:2000, Sigma), anti human alphafetoprotein (mouse monoclonal IgG2a, 1:200, Sigma), anti human muscle actin (mouse monoclonal IgG1, 1:10, Dako) and anti human desmin (mouse monoclonal IgG1,κ, 1:10, Dako), anti-Pax6 (Developmental Studies Hybridoma Bank; mouse monoclonal IgG1, 1:100), anti-MITF (Lab Vision Corporation, Fremont, Calif.; mouse IgG1, 1:50), anti-RPE65 (Novus Biologicals, Littleton, Colo.; mouse IgG1, 1:300), anti-Bestrophin (Novus Biologicals, Littleton, Colo.; mouse IgG1, 1:150), anti-ZO-1 (Zymed Laboratories Inc., South San Francisco, Calif.; rabbit polyclonal, 1:10) and anti-CRALBP (kindly provided by John C. Saari, University of Washington, Seattle; rabbit polyclonal, 1:100).
# hESC-derived EBs [4] = test: Differentiation towards RPE (pigmented) cells within EBs
# Experimental: as §1
# Differentiation into neural spheres was conducted according to the published protocol (Itsykson, P., et al. Derivation of neural precursors from human embryonic stem cells in the presence of noggin. Mol Cell Neurpsci 30, 24-36 (2005). Spheres were dissociated mechanically by trituration. Pigmented clusters of cells within EBs, differentiating 8-10 weeks were mechanically dissected by glass micropipettes or scalpel blades.
# as §2
# hESC-derived EBs [5] = test: Gene expression profile of EBs by affymetrix gene arrays
# cord-derived fibroblasts = test: Propagation of cord-derived feeders with FGF2 supplementation; settings: medium supplemented with FGF2; FIG. 16
# Experimental: Term umbilical cord tissue was minced as above, and the small pieces of tissue were plated in the fibroblast culture medium, as described above. To promote the adherence of the tissue pieces to the culture dish, flasks were incubated upright overnight. Cells emanating from the tissue pieces were propagated as above.
# hESC [6] = test: hESC culture on dishes pre-coated with different matrices; FACS marker expression
# Experimental: Human embryonic fibroblasts derived from umbilical cord as described herein or foreskin fibroblasts were used as feeders. The feeders were plated in tissue culture dishes precoated with 1 μg/cm^2 human Fibronectin (BD Biosciences, Bedford, Mass.) or 100 μg/ml recombinant Gelatin (FibroGen, SF). Mitotic inactivation was carried out by incubating the feeders 2.5 hours with Mitomycin-C (Kyowa, Tokyo). KO DMEM (Gibco), X-Vivo 10 (Biowhittaker, Maryland), or Cellgro Stem Cell Growth Medium (CellGenix Freiburg, Germany) were used as the basic media. They were supplemented with TCH (1-2%; Protide Pharmaceuticals, St. Paul, Minn.) or Nutridoma-CS (2%; Roche, Germany) as serum substitutes. The media were supplemented with 2 mM glutamine (Hyclone, Utah) and non-essential amino acids (NEAA, 1%; Hyclone Utah). HESC were split weekly with Ca/Mg^++-free PBS supplemented with 0.05% EDTA.
# FACS analysis of marker expression was performed on hESC after disaggregation using Ca/Mg^++-free PBS supplemented with 0.05% EDTA. The cells were then washed with FACS media consisting of PBS supplemented with 1% BSA and 0.05% sodium azide. The single cell suspension was stained with anti-SSEA4 (1:100, mouse monoclonal IgG3, Developmental Studies Hybridoma Bank (DHSB), Iowa City, Iowa), and anti-Tra-1-60 (1:20, monoclonal mouse IgM, gift from Prof. P. Andrews), anti-Tra-1-81 (1:100, monoclonal mouse IgM, Chemicon International), anti-human Oct 4 (mouse monoclonal IgG2b, 1:50, Santa Cruz), and anti-SSEA1 (1:100, Chemicon). Control hESC were stained with the respective isotype control antibodies. Primary antibodies were detected with a FITC-labeled goat anti-mouse Ig (1:100, Dako).
# hESC [7] = test: Suspension culture of hESC in NBN2 medium; settings: NBN2, in the presence of FGF2, 3 weeks
# Experimental: In the course of the routine passaging procedure, HESC colonies were dissociated with 0.05% of EDTA for 7-10 min at 37°, or mechanically with the aid of collagenase IV (1 mg/ml, 120 min at 37°). Cell dissociation was promoted by gentle blowing of the medium with a 1 ml pipette tip towards the hESC colonies. The cells/cell-clusters were re-suspended in NBN2 medium (Neurobasal, N2 supplement 1:100, glutamine 2 mM, 50 units/ml penicillin, 50 μg/ml streptomycin) supplemented with bFGF 20 ng/ml, noggin 250 ng/ml, activin 25-50 ng/ml, fibronectin and laminin 5 ng/ml each, gelatin 0.001%. The suspension may be strained though 30-50 micron mesh to remove big clumps and transferred into tissue culture dishes (Costar®, Corning Inc., Corning, N.Y., USA) at a density of ˜0.7-1.2×10^6 cells/ml. Dead cells and their fragments were gradually removed during media refreshment and small transparent cell aggregates emerged from the 3rd-5th days of suspension culture. The cells proliferated as free-floating tiny clusters of 20-50 cells. Aggregation and overgrowth of clusters was prevented by their daily trituration with a 1000 μl pipettor tip. Alternatively, every 7 days clusters were dissociated with Ca/Mg-free PBS supplemented with 3 mM EDTA and 0.06% trypsin and the single cells were resuspended in fresh medium. […]
# [8] = in the presence of NA, indirect immunofluorescence
# [9] = 4 weeks suspension culture, presence vs absence of NA
# [10] = Cellgro medium with 2% TCH, matrix coating
molecule,measurement,setting,value
"NC(=O)c1cccnc1 [NA, nicotinamide]",development of cystic structures in EBs,hESC-derived EBs [1]; EBs cultured in the presence of RA and NA,infrequent; also recorded: blocked the effects of RA
same,morphology of differentiated cells within EBs,hESC-derived EBs [1]; NA 10 mM,acquired the morphology of neural precursor cells
same,prolonged culture of EBs,hESC-derived EBs [1]; NA treatment,12 weeks
same,number of cells versus controls,hESC-derived EBs [1]; after 2 weeks,5.4 times
same,number of cells versus controls,hESC-derived EBs [1]; after 4 weeks,33 times
same,formation of cystic structures within EBs,"hESC-derived EBs [1]; chemically-defined medium (NBN2), 2-5 weeks",not observed
same,effect of RA on number of differentiated cells,hESC-derived EBs [1]; medium with RA supplemented with NA,blocked
same,size of EBs (maximal diameter) versus EBs without NA,"hESC-derived EBs [1]; serum-free medium, two weeks of differentiation",1.7 times
same,formation of cystic structures within EBs,"hESC-derived EBs [1]; serum-supplemented medium, NA 10 mM",not formed; also recorded: not observed
same,expression of cytokeratin-8 within EBs,"hESC-derived EBs [2]; 4 weeks in the presence of NA, immunocytochemistry",not demonstrated; also recorded: only a few cells
same,expression of α-fetoprotein within EBs,"hESC-derived EBs [2]; differentiation in the presence of NA, immunocytochemistry and RT-PCR",not detected; also recorded: suppressed; also recorded: only a few cells
same,percentage of cells expressing PSA-NCAM,"hESC-derived EBs [3]; 6 weeks in the presence of NA, FACS",85.5%
same,percentage of cells expressing nestin,hESC-derived EBs [3]; [8],58.3%
same,percentage of cells expressing β-tubulin III,hESC-derived EBs [3]; [8],67.8%
same,percentage of EBs that included clusters of pigmented cells,hESC-derived EBs [4]; 5 weeks of differentiation in the presence of NA,34%
same,percentage of EBs that included clusters of pigmented cells,hESC-derived EBs [4]; 6 weeks of differentiation in the presence of NA,59%
same,percentage of EBs that included clusters of pigmented cells,hESC-derived EBs [4]; 12 weeks of differentiation in the presence of NA,70%
same,expression of the RPE markers RPE65 and MITF A,"hESC-derived EBs [4]; Real Time PCR, 6 weeks, versus control EBs",significantly increased; also recorded: induction
same,percentage of cells within the EBs that were pigmented,hESC-derived EBs [4]; after 6 weeks of differentiation,9%
same,number of genes down-regulated,hESC-derived EBs [5]; [9],630 genes
same,number of genes up- or down-regulated by at least two-fold,hESC-derived EBs [5]; [9],1072 genes
same,number of genes up-regulated,hESC-derived EBs [5]; [9],442 genes
same,expression of chordin-like-1 gene,"hESC-derived EBs [5]; gene arrays, confirmed by RT PCR",up-regulated
same,expression of LEFT A & B and PITX1,"hESC-derived EBs [5]; gene arrays, 4 weeks",down regulated
same,"expression of Wnt signaling pathway genes (Wnt4, Wnt 2B, FZD1, FZD2, FZD3, FZD10)","hESC-derived EBs [5]; gene arrays, 4 weeks",induced
same,expression of ZIC1,"hESC-derived EBs [5]; gene arrays, 4 weeks",remarkably up-regulated
same,"expression of cytokeratins 7, 18, 19, 23","hESC-derived EBs [5]; gene arrays, 4 weeks",suppressed
same,expression of α-fetoprotein and cytokeratin-8,"hESC-derived EBs [5]; gene arrays, 4 weeks",suppressed
FGF2: growth factor supplementing the medium,proliferation of the fibroblasts,cord-derived fibroblasts,could be augmented
gelatin,percentage of SSEA-4+ cells,hESC [6]; [10],97%
same,percentage of Tra-1-60+ cells,hESC [6]; [10],92%
same,percentage of SSEA-4+ hESC,"hESC [6]; foreskin feeder layer, KO DMEM+KO SR, plates precoated with the matrix",91%
B1,effect on differentiation of hESC in suspension,hESC [7]; FIG. 23A,prevented differentiation
B2,effect on survival/proliferation of hESC in suspension,hESC [7]; FIG. 23B,could promote survival/proliferation
